# From ChEMBL document CHEMBL4706534, “1,2,3-Triazole-containing hybrids with potential antibacterial activity against methicillin-resistant Staphylococcus aureus (MRSA)” (Eur J Med Chem, 2020)
# Legend:
# Format in all cases: functional
# Staphylococcus aureus [1] = assay: Antibacterial activity against Methicillin-resistant Staphylococcus aureus USA100 by CLSI-based microdilution method
# Staphylococcus aureus [2] = assay: Antibacterial activity against wild type Methicillin-resistant Staphylococcus aureus by CLSI-based microdilution method
# Staphylococcus aureus [3] = assay: Antibacterial activity against Methicillin-resistant Staphylococcus aureus USA300 by CLSI-based microdilution method
# Staphylococcus aureus [4] = assay: Antibacterial activity against Methicillin-resistant Staphylococcus aureus USA200 by CLSI-based microdilution method
# Staphylococcus aureus [5] = assay: Antibacterial activity against Methicillin-resistant Staphylococcus aureus USA600 by CLSI-based microdilution method
# Staphylococcus aureus [6] = assay: Antibacterial activity against Methicillin-resistant Staphylococcus aureus KU60
# Staphylococcus aureus [7] = assay: Resistance index, ratio of MIC for antibacterial activity against methicillin-resistant Staphylococcus aureus […] to MIC for antibacterial activity against methicillin-sensitive Staphylococcus aureus
# Staphylococcus aureus [8] = assay: Antibacterial activity against Staphylococcus aureus ATCC 25923 by CLSI-based broth microdilution method
# Enterococcus [9] = assay: Antibacterial activity against Vancomycin-resistant enterococcus 1 incubated for 16 hrs by agar dilution method
# Enterococcus [10] = assay: Antibacterial activity against Vancomycin-resistant enterococcus 2 incubated for 16 hrs by agar dilution method
# Staphylococcus aureus [11] = assay: Antibacterial activity against Methicillin-resistant Staphylococcus aureus ATCC 33591 incubated for 20 hrs by broth two-fold dilution method
# Staphylococcus aureus [12] = assay: Bactericidal activity against methicillin-resistant Staphylococcus aureus ATCC 33591 measured after 20 hrs
# Staphylococcus aureus [13] = assay: Antibacterial activity against methicillin-resistant Staphylococcus aureus ATCC 43300 incubated for 18 hrs
# Staphylococcus aureus [14] = assay: Resistance index, ratio of MIC for antibacterial activity against Staphylococcus aureus ATCC 43300 incubated for 18 hrs to MIC for antibacterial activity against Staphylococcus aureus ATCC 25923 incubated for 18 hrs
# Staphylococcus aureus [15] = assay: Antibacterial activity against Methicillin-resistant Staphylococcus aureus 2 incubated for 16 hrs by agar dilution method
# Staphylococcus aureus [16] = assay: Antibacterial activity against Methicillin-resistant Staphylococcus aureus 1 incubated for 16 hrs by agar dilution method
# Staphylococcus aureus [17] = assay: Antibacterial activity against Methicillin-resistant Staphylococcus aureus ATCC 52056 incubated for 18 to 24 hrs by CLSI-based microbroth dilution method; conditions: time 18-24 hrs
# Staphylococcus aureus [18] = assay: Antibacterial activity against Methicillin-resistant Staphylococcus aureus ATCC 51345 incubated for 18 to 24 hrs by CLSI-based microbroth dilution method; conditions: time 18-24 hrs
# Staphylococcus aureus [19] = assay: Antibacterial activity against Methicillin-resistant Staphylococcus aureus ATCC 510019 incubated for 18 to 24 hrs by CLSI-based microbroth dilution method; conditions: time 18-24 hrs
# Staphylococcus aureus [20] = assay: Antibacterial activity against Methicillin-resistant Staphylococcus aureus ATCC 52351-2 incubated for 18 to 24 hrs by CLSI-based microbroth dilution method; conditions: time 18-24 hrs
# Staphylococcus aureus [21] = assay: Antibacterial activity against Methicillin-resistant Staphylococcus aureus ATCC 43300 incubated for 18 to 24 hrs by CLSI-based microbroth dilution method; conditions: time 18-24 hrs
# Staphylococcus aureus [22] = assay: Antibacterial activity against Methicillin-resistant Staphylococcus aureus ATCC 51599-2 incubated for 18 to 24 hrs by CLSI-based microbroth dilution method; conditions: time 18-24 hrs
# Staphylococcus aureus [23] = assay: Antibacterial activity against Methicillin-resistant Staphylococcus aureus ATCC 60202 incubated for 18 to 24 hrs by CLSI-based microbroth dilution method; conditions: time 18-24 hrs
# Staphylococcus aureus [24] = assay: Antibacterial activity against Methicillin-resistant Staphylococcus aureus ATCC 405055 incubated for 18 to 24 hrs by CLSI-based microbroth dilution method; conditions: time 18-24 hrs
# Staphylococcus aureus [25] = assay: Antibacterial activity against Methicillin-resistant Staphylococcus aureus ATCC 51033 incubated for 18 to 24 hrs by CLSI-based microbroth dilution method; conditions: time 18-24 hrs
structure (smiles),measurement,setting,value
NC[C@@H]1O[C@H](O[C@H]2[C@@H](O)[C@H](O[C@@H]3[C@@H](O)[C@H](N)C[C@H](N)[C@H]3O[C@H]3O[C@H](CN)[C@@H](O)[C@H](O)[C@H]3N)O[C@@H]2Cn2cc(COCCCCCCCCOCc3cn(C[C@H]4O[C@@H](O[C@@H]5[C@@H](O)[C@H](N)C[C@H](N)[C@H]5O[C@H]5O[C@H](CN)[C@@H](O)[C@H](O)[C@H]5N)[C@H](O)[C@@H]4O[C@H]4O[C@@H](CN)[C@@H](O)[C@H](O)[C@H]4N)nn3)nn2)[C@H](N)[C@@H](O)[C@@H]1O,MIC,Staphylococcus aureus [1],25 µg/mL
same,MIC,Staphylococcus aureus [2],25 µg/mL
same,MIC,Staphylococcus aureus [3],25 µg/mL
same,MIC,Staphylococcus aureus [4],25 µg/mL
same,MIC,Staphylococcus aureus [5],25 µg/mL
O=C(c1ccccc1)N1CCN(c2ccc(N3C[C@H](Cn4ccnn4)OC3=O)cc2F)CC1,MIC,Staphylococcus aureus [6],0.25 µg/mL
CC(C)NC(=N)c1ccc2[nH]c(-c3ccc(OCc4cn(-c5ccccc5)nn4)cc3)nc2c1,Ratio,Staphylococcus aureus [7],0.125
same,MIC,Staphylococcus aureus [8],8 µg/mL
CC(C)C[C@@H](N)C(=O)N[C@H]1C(=O)N[C@@H](CC(N)=O)C(=O)N[C@H]2C(=O)N[C@H]3C(=O)N[C@H](C(=O)N[C@H](C(=O)O)c4cc(O)cc(O)c4-c4cc3ccc4O)[C@H](O)c3ccc(c(Cl)c3)Oc3cc2cc(c3O[C@@H]2O[C@H](CO)[C@@H](O)[C@H](O)[C@H]2O[C@H]2C[C@](C)(N)[C@H](O)[C@H](C)O2)Oc2ccc(cc2Cl)[C@H]1O,MIC,Enterococcus [9],> 50 µg/mL
same,MIC,Enterococcus [10],> 50 µg/mL
COc1cc(/C=C/c2ccc(OCc3cn(-c4ccc(C(=O)O)cc4)nn3)cc2)cc(OC)c1,MIC,Staphylococcus aureus [11],1.2 µg/mL
same,MBC,Staphylococcus aureus [12],19.5 µg/mL
NC[C@H]1O[C@@H](O[C@@H](Cn2cc(CCCCCCCCCCOc3ccc(C(=O)c4ccccc4)cc3)nn2)[C@H]2O[C@@H](n3ccc(=O)[nH]c3=O)[C@H](O)[C@@H]2O)[C@H](O)[C@@H]1O.O=C(O)C(F)(F)F,MIC,Staphylococcus aureus [13],8 µg/mL
same,Ratio,Staphylococcus aureus [14],1
CC(C)C[C@H](C(=O)N[C@@H]1Cc2ccc(c(Cl)c2)Oc2cc3cc(c2O[C@@H]2O[C@H](CO)[C@@H](O)[C@H](O)[C@H]2O[C@H]2C[C@](C)(NCCCCCCCc4ccccc4)[C@H](O)[C@H](C)O2)Oc2ccc(cc2Cl)[C@@H](O)[C@@H]2NC(=O)[C@H](NC(=O)[C@@H]3NC(=O)[C@H](CC(=O)O)NC1=O)c1ccc(O)c(c1)-c1c(O)cc(O)cc1[C@H](C(=O)O)NC2=O)n1cc(COCCOCCOCc2cn([C@H](CC(C)C)C(=O)N[C@@H]3Cc4ccc(c(Cl)c4)Oc4cc5cc(c4O[C@@H]4O[C@H](CO)[C@@H](O)[C@H](O)[C@H]4O[C@H]4C[C@](C)(NCCCCCCCc6ccccc6)[C@H](O)[C@H](C)O4)Oc4ccc(cc4Cl)[C@@H](O)[C@@H]4NC(=O)[C@H](NC(=O)[C@@H]5NC(=O)[C@H](CC(=O)O)NC3=O)c3ccc(O)c(c3)-c3c(O)cc(O)cc3[C@H](C(=O)O)NC4=O)nn2)nn1,MIC,Staphylococcus aureus [15],12.5 µg/mL
same,MIC,Enterococcus [9],25 µg/mL
same,MIC,Staphylococcus aureus [16],6.25 µg/mL
same,MIC,Enterococcus [10],12.5 µg/mL
Cc1nc(C)c(COc2ccc(N3C[C@H](Cn4ccnn4)OC3=O)cc2F)nc1C,MIC,Staphylococcus aureus [17],4 µg/mL
same,MIC,Staphylococcus aureus [18],4 µg/mL
same,MIC,Staphylococcus aureus [19],4 µg/mL
same,MIC,Staphylococcus aureus [20],4 µg/mL
same,MIC,Staphylococcus aureus [21],4 µg/mL
same,MIC,Staphylococcus aureus [22],4 µg/mL
same,MIC,Staphylococcus aureus [23],4 µg/mL
same,MIC,Staphylococcus aureus [24],4 µg/mL
same,MIC,Staphylococcus aureus [25],4 µg/mL
CC(C)NC(=N)c1ccc2[nH]c(-c3ccc(OCc4cn(CSc5ccccc5)nn4)cc3)nc2c1,Ratio,Staphylococcus aureus [7],0.125
same,MIC,Staphylococcus aureus [8],8 µg/mL
Cc1nc(C)c(COc2ccc(N3C[C@H](Cn4ccnn4)OC3=O)cc2)nc1C,MIC,Staphylococcus aureus [17],4 µg/mL
same,MIC,Staphylococcus aureus [18],4 µg/mL
same,MIC,Staphylococcus aureus [19],4 µg/mL
same,MIC,Staphylococcus aureus [20],4 µg/mL
same,MIC,Staphylococcus aureus [21],4 µg/mL
same,MIC,Staphylococcus aureus [22],4 µg/mL
same,MIC,Staphylococcus aureus [23],4 µg/mL
same,MIC,Staphylococcus aureus [24],4 µg/mL
same,MIC,Staphylococcus aureus [25],4 µg/mL
C#CCOCCOCCOCc1cn([C@H](CC(C)C)C(=O)N[C@@H]2Cc3ccc(c(Cl)c3)Oc3cc4cc(c3O[C@@H]3O[C@H](CO)[C@@H](O)[C@H](O)[C@H]3O[C@H]3C[C@](C)(NCCCCCCCc5ccccc5)[C@H](O)[C@H](C)O3)Oc3ccc(cc3Cl)[C@@H](O)[C@@H]3NC(=O)[C@H](NC(=O)[C@@H]4NC(=O)[C@H](CC(=O)O)NC2=O)c2ccc(O)c(c2)-c2c(O)cc(O)cc2[C@H](C(=O)O)NC3=O)nn1,MIC,Staphylococcus aureus [15],12.5 µg/mL
same,MIC,Staphylococcus aureus [16],25 µg/mL
CC(C)NC(=N)c1ccc2[nH]c(-c3ccc(OCc4cn(-c5ccccc5Cl)nn4)cc3)nc2c1,Ratio,Staphylococcus aureus [7],0.125
same,MIC,Staphylococcus aureus [8],8 µg/mL
CC(C)C[C@H](C(=O)N[C@@H]1Cc2ccc(c(Cl)c2)Oc2cc3cc(c2O[C@@H]2O[C@H](CO)[C@@H](O)[C@H](O)[C@H]2O[C@H]2C[C@](C)(NCCCCCCCc4ccccc4)[C@H](O)[C@H](C)O2)Oc2ccc(cc2Cl)[C@@H](O)[C@@H]2NC(=O)[C@H](NC(=O)[C@@H]3NC(=O)[C@H](CC(=O)O)NC1=O)c1ccc(O)c(c1)-c1c(O)cc(O)cc1[C@H](C(=O)O)NC2=O)n1cc(COc2ccc(-c3ccc(OCc4cn([C@H](CC(C)C)C(=O)N[C@@H]5Cc6ccc(c(Cl)c6)Oc6cc7cc(c6O[C@@H]6O[C@H](CO)[C@@H](O)[C@H](O)[C@H]6O[C@H]6C[C@](C)(NCCCCCCCc8ccccc8)[C@H](O)[C@H](C)O6)Oc6ccc(cc6Cl)[C@@H](O)[C@@H]6NC(=O)[C@H](NC(=O)[C@@H]7NC(=O)[C@H](CC(=O)O)NC5=O)c5ccc(O)c(c5)-c5c(O)cc(O)cc5[C@H](C(=O)O)NC6=O)nn4)cc3)cc2)nn1,MIC,Staphylococcus aureus [15],12.5 µg/mL
same,MIC,Staphylococcus aureus [16],12.5 µg/mL
same,MIC,Enterococcus [10],25 µg/mL
